Measurements as given in ChEMBL document CHEMBL6134903, “Challenging triple negative breast cancer through HDAC6 selective inhibition: Novel cap-group identification, structure-activity relationships, computational and biological studies” (Eur J Med Chem, 2025).

Legend:
[1] = Cytotoxicity against human HeLa cells assessed as reduction in cell viability incubated for 72 hrs by CellTiter Glo assay; format: toxicity, cell-based
physchem = conditions: MeOH/H2O, pH 7
Description: Solubility of the compound in MeOH/H20 at pH 7 incubated for 24 hrs by LC-MS/MS analysis

solubility at 24 h (physchem) | Structure (SMILES) | IC50 at 72 h [1] | CC50 at 72 h [1]
– | O=C(/C=C/c1ccc(CN(CCO)CCc2c[nH]c3ccccc23)cc1)NO [DACINOSTAT] | 30.8 nM | 30 nM
– | Cc1[nH]c2ccccc2c1CCNCc1ccc(/C=C/C(=O)NO)cc1 [PANOBINOSTAT] | 10.9 nM | 11 nM
< 1000 µg/mL | CN1CCc2c(c3ccccc3n2Cc2ccc(C(=O)NO)cc2)C1 [TUBASTATIN A] | – | –
